In article PMC5656653, “Evaluation of Ga-DOTA-(D-Asp)n as bone imaging agents: D-aspartic acid peptides as carriers to bone” (Scientific Reports, 2017):
Where a SMILES comes first, the peptide text is derived from it. [ ]: non-standard residue; d: D form. The star is where a group is joined. DOTA = O=C(O)CN1CCN(CC(=O)O)CCN(CC(=O)*)CCN(CC(=O)O)CC1

Assay: Biodistribution experiments in normal mice after i.v. injection
Assay type: in vivo
Conditions: mouse, in vivo, iv; for tissue uptake dose at 10 min / tissue uptake dose at 1 h / tissue uptake dose at 3 h: male, ddY, total radioactivity, Biodistribution of radioactivity
Procedure: Experiments with animals were conducted in strict accordance with the Guidelines for the Care and Use of Laboratory Animals of Kanazawa University. The animal experimental protocols used were approved by the Committee on Animal Experimentation of Kanazawa University (Permit Number: AP-132633). Biodistribution experiments were performed after intravenous administration of each diluted tracer solution (37–740 kBq/100 μL) to 6-week-old male ddY mice (27–32 g, Japan SLC, Inc., Hamamatsu, Japan). Four or five mice at each time point after the administration of each compound were sacrificed by decapitation at 10, 60, and 180 min post-injection. Tissues of interest were taken and weighed. Complete left femurs were isolated as representative bone samples, radioactivity was determined using gamma counters (AccuFLEX γ ARC-8001 in the case of ^18F, Hitachi, Ltd.), and background counts and physical decay were corrected during counting.

tissue uptake dose at 10 min (Blood): 1.94 %ID
tissue uptake dose at 1 h (Blood): 0.33 %ID
tissue uptake dose at 3 h (Blood): 0.13 %ID
tissue uptake dose at 10 min (Bone (Femur)): 9.86 %ID
tissue uptake dose at 1 h (Bone (Femur)): 11.6 %ID
tissue uptake dose at 3 h (Bone (Femur)): 12.5 %ID
tissue uptake dose at 10 min (Brain): 0.05 %ID
tissue uptake dose at 1 h (Brain): 0.01 %ID
tissue uptake dose at 3 h (Brain): 0.01 %ID
tissue uptake dose at 10 min (Heart): 0.63 %ID
tissue uptake dose at 1 h (Heart): 0.14 %ID
tissue uptake dose at 3 h (Heart): 0.05 %ID
tissue uptake dose at 10 min (Kidney): 12.8 %ID
tissue uptake dose at 1 h (Kidney): 2.49 %ID
tissue uptake dose at 3 h (Kidney): 1.23 %ID
tissue uptake dose at 10 min (Large-intestine): 0.26 %ID
tissue uptake dose at 1 h (Large-intestine): 0.05 %ID
tissue uptake dose at 3 h (Large-intestine): 0.08 %ID
tissue uptake dose at 10 min (Liver): 0.46 %ID
tissue uptake dose at 1 h (Liver): 0.14 %ID
tissue uptake dose at 3 h (Liver): 0.11 %ID
tissue uptake dose at 10 min (Lung): 1.34 %ID
tissue uptake dose at 1 h (Lung): 0.26 %ID
tissue uptake dose at 3 h (Lung): 0.1 %ID
tissue uptake dose at 10 min (Muscle): 0.57 %ID
tissue uptake dose at 1 h (Muscle): 0.15 %ID
tissue uptake dose at 3 h (Muscle): 0.14 %ID
tissue uptake dose at 10 min (Pancreas): 0.57 %ID
tissue uptake dose at 1 h (Pancreas): 0.11 %ID
tissue uptake dose at 3 h (Pancreas): 0.08 %ID
tissue uptake dose at 10 min (Small-intestine): 0.39 %ID
tissue uptake dose at 1 h (Small-intestine): 0.13 %ID
tissue uptake dose at 3 h (Small-intestine): 0.1 %ID
tissue uptake dose at 10 min (Spleen): 0.42 %ID
tissue uptake dose at 1 h (Spleen): 0.16 %ID
tissue uptake dose at 3 h (Spleen): 0.09 %ID
tissue uptake dose at 10 min (Stomach): 0.34 %ID
tissue uptake dose at 1 h (Stomach): 0.04 %ID
tissue uptake dose at 3 h (Stomach): 0.1 %ID
Compound: O=C(O)C[C@@H](NC(=O)[C@@H](CC(=O)O)NC(=O)[C@@H](CC(=O)O)NC(=O)[C@@H](CC(=O)O)NC(=O)[C@@H](CC(=O)O)NC(=O)[C@@H](CC(=O)O)NC(=O)[C@@H](CC(=O)O)NC(=O)[C@@H](CC(=O)O)NC(=O)CN1CCN(CC(=O)O)CCN(CC(=O)O)CCN(CC(=O)O)CC1)C(=O)O [^67Ga-DOTA-(D-Asp)8, metal not drawn] ({DOTA}-[dD][dD][dD][dD][dD][dD][dD][dD]-OH)
Accumulation of radioactivity in bone (in words): high accumulation and retention of radioactivity in bone
